# From patent publication US6350769B1 (The Regents of the University of California, priority 1999, dated 2002)
# How the values were obtained:
# [1] = tested on: lymph node mononuclear cells from GADp35 immunized NOD mice; assay: IL-2 production by antigen stimulated T cells (CTLL proliferation readout); assay type: cell-based; details: GADp35 at 2, 7 and 20 micromolar; 36 hours; different concentrations of GABA
# Description: The IL-2 activity in supernatant was determined by IL-2-dependent CTLL proliferation. The data are expressed as IL-2 units/ml±SD.
# (§1) Mice (6-8 weeks in age) were injected with 20 nM GADp35 peptide in 50% complete Freund's adjuvant (CFA, Gibco) in their hind food-pad. […] The supernatant of the cultured cells was harvested and the activity of IL-2 was measured using the IL-2-dependent cell line CTLL-2. Recombinant mouse IL-2 (Genzyme) was used as a standard.
# NOD-scid mice = assay: adoptive transfer of IDDM to NOD-scid mice; assay type: in vivo; details: 600 μg/day
# Excerpt: Ten to twenty million splenocytes from NOD mice with recent onset of IDDM were intravenously injected into recipient 6-week-old mice. […] (n=12 for both groups).
# A NOD strain congenic for the severe combined immunodeficiency (scid) mutation developed to study diabetogenesis in NOD mice was used in the adoptive transfer experiment. Neither insulitis nor diabetes is observed in the NOD-scid mice because they lack functional lymphocytes. This ensured that the T cells responsible for diabetes in recipient NOD-scid mice were derived from the diabetic donor NOD mice. Only female NOD mice were used since they incur a higher incidence of IDDM than males.
# The control mice received a placebo pellet instead the GABA pellet. The mice were monitored for diabetes onset by testing their urine glucose levels with Tes-tape and blood glucose levels with a glucometer. The onset of IDDM is defined as two consecutive blood glucose readings of over 300 mg/dl.
# NOD mice = assay: antigen-primed DTH response (KLH footpad swelling); assay type: in vivo
# Description: The next day, the mice were immunized with KLH in 50% CFA at the base of their tail. One week later, the mice were challenged with KLH in PBS in their right footpad, while the left footpad received ovalbumin in PBS as a control. Footpad swelling was expressed as the average size increase of the KLH injected footpad compared to the control footpad±SD (n=5 mice/group, *p<0.005, **p<0.002, ***p<0.001).
# The next day, the mice were immunized with 100 μg keyhole limpet hemocyanin (KLH, Sigma), a prototypic foreign antigen, in 50% CFA at the base of their tail. One week later, the mice were challenged with KLH (100 μg in 25 μl PBS) in their right footpad, while the left footpad received ovalbumin (100 μg in […] PBS) as a control. Both hind feet were measured before injection and at 24, 48, 72 and 96 hrs post injection using a monostat caliper. Footpad swelling was expressed as the average size increase (in millimeters) of the KLH-injected footpad compared to the control ovalbumin-injected footpad of each animal. The measurements were conducted in a blinded fashion on coded animals.
# CTLL-2 cells = assay: control CTLL-2 cell response to recombinant murine IL-2; assay type: cell-based, mouse; details: 10 μM-10 mM
# Description: as §1
# lymph node T cell = assay: antigen-primed lymph node T cell proliferative recall response (3H-thymidine incorporation); assay type: cell-based, NOD, Balb/c and AKR mice; details: for immuno-inhibitory effect of GABA on co-incubation with the compound: different (also high) concentrations of GABA, GADp35; for immuno-inhibitory effect of GABA on co-incubation with the compound / effect on GABA-mediated inhibition of T cell proliferation: co-incubation; for effect on GABA-mediated inhibition of T cell proliferation: 1 μM-500 μM
# Description: NOD, Balb/c and AKR mice were immunized with an immunogenic foreign (HEL) or self (GAD) peptide in 50% CFA. […] Groups of 5 mice were tested in two independent experiments.
# Lymph node mononuclear cells from GADp35 primed NOD mice were pretreated with different concentrations of muscimol or baclofen in vitro, and then challenged with 7 μM GADp35 to stimulate antigen specific T cell proliferation. The data are presented as the per cent ^3H-thymidine incorporation relative to control peptid-estimulated cells without muscimol or baclofen treatment. Lymph node mononuclear cells in medium alone served as negative controls. […] Groups of 5-6 mice were tested in two independent experiments.
# Groups of 5 mice were tested in three independent experiments.
# Lymph node mononuclear cells from NOD mice which were immunized with GADp35 were cultured with bicuculline, RU5135 or picrotoxin. […] The data are expressed as the per cent ^3H-thymidine incorporation relative to control antigen-stimulated cells without any drug treatment. […] Groups of 5-6 mice were tested in three independent experiments.
# Three strains of mice with different MHC class II alleles were immunized with an immunogenic peptide from hen egg lysozyme (HEL). […] Mice were injected with 20 nM peptide in 50% complete Freund's adjuvant (CFA, Gibco) in their hind food-pad.
# GAD peptides were selected from an overlapping set of peptides which span the GAD molecule (Atkinson et al. (1994) J. Clin. Invest. 94:2125-2129). GAD65 peptide 35 (GADp35) contains a self-antigen determinant for NOD (H-2^NOD; Taconic Farms) and BALB/c (H-2^d) mice (Jackson Laboratory) and GAD peptide 25 (GADp25) contains a self-antigen determinant for AKR (H-2^k) mice (Jackson Laboratory; Kaufman et al. (1993) Nature 366:69-72). Following immunization with 20 nM of immunogenic GAD peptide in 50% complete Freund's adjuvant (CFA, Gibco), T cell proliferation was assayed as described above.
# splenic T cell = assay: anti-CD3 stimulated splenic T cell proliferation (3H-thymidine incorporation); assay type: cell-based, Balb/c mice
# Description: During the last 8 hours of incubation, ^3H-thymidine (1 μCi/well) was added into each well to determine T cell proliferation. […] The background level of ^3H-thymidine incorporation in medium alone was 1,965-2,400 cpm. Groups of 5-6 mice were tested in two independent experiments.
# The data are presented as the mean percent ^3H-thymidine incorporation relative to the positive control from groups of 5-6 mice which were tested in 2-3 independent experiments.
# [2] = tested on: mononuclear splenic cells; assay: T cell response to PMA and ionomycin; assay type: cell-based, mice; details: 10 μM-10 mM
# [3] = 21-day slow release GABA pellet
# [4] = NOD, Balb/c and AKR mice, 7 μM peptide, different concentrations of GABA
compound,measurement,setting,value
"NCCCC(=O)O [GABA, γ-Aminobutyric acid]",antigen-induced IL-2 secretion,[1],reduced in a dose-dependent manner
same,diabetes incidence after adoptive transfer,NOD-scid mice; [3],significantly reduced diabetes incidence
same,onset of IDDM beginning at,NOD-scid mice; [3],4 weeks
same,onset of IDDM in mice that developed it,NOD-scid mice; [3],delayed onset
same,onset of IDDM beginning at,NOD-scid mice; 60-day slow release GABA pellet,7 weeks
same,signs of toxicity,NOD mice; mice implanted with GABA-releasing pellets (600 μg GABA/day),no obvious signs of toxicity
same,less footpad swelling in response to KLH than placebo-treated mice,"NOD mice; pellet releasing 600 μg/day GABA, under the skin, 24-72 hour response period, p<0.005",30-50%
same,CTLL-2 cell response to recombinant murine IL-2 on addition of compound,CTLL-2 cells,unaffected
same,T cell recall proliferation to foreign antigen (HEL peptides),lymph node T cell; [4],inhibit T cell proliferation to the immunogens in a dose-dependent manner
same,T cell recall proliferation to self-antigen (GAD peptides),lymph node T cell; [4],inhibit proliferative T cell responses to the injected antigen in all three strains of mice in a dose-dependent manner
same,impact on T cell survival,splenic T cell; in vitro culture,little impact on T cell survival
same,T cell proliferation with the compound itself (without anti-CD3),splenic T cell; without anti-CD3,failed to stimulate T cell proliferation
same,effect on T cell response to PMA and ionomycin,[2],did not significantly affect
C[C@]12CC[C@@H](O)C[C@H]1CC[C@@H]1[C@@H]2C(=O)C[C@]2(C)N=C(N)C[C@@H]12 [RU5315],immuno-inhibitory effect of GABA on co-incubation with the compound,lymph node T cell,greatly reduced
NCC(CC(=O)O)c1ccc(Cl)cc1 (centres unmarked) [baclofen],effect on T cell proliferation,lymph node T cell; 10 μM-10 mM,little effect
same,interference with the immuno-suppressive action of muscimol,"lymph node T cell; 10 μM-10 mM, with muscimol",did not interfere
N[C@@H](CCC(=O)O)C(=O)O [glutamic acid],"effect on T cell proliferative responses, alone or co-incubated with GABA",lymph node T cell; 10 μM-10 mM,little effect
NCc1cc(=O)[nH]o1 [muscimol],reduction of antigen primed T cell responses,"lymph node T cell; 300 μM, GADp35 primed NOD mice",approximately 40%
same,antigen-induced T cell proliferation,"lymph node T cell; different concentrations, 7 μM GADp35",inhibit in a dose-dependent manner
same,anti-CD3 induced T cell proliferation,splenic T cell; different concentrations,inhibit in a dose-dependent manner
O=C(O)C1CCCNC1 (centres unmarked) [nipecotic acid],effect on GABA-mediated inhibition of T cell proliferation,lymph node T cell,did not significantly affect
CCCC(C)C1(CC)C(=O)NC(=O)NC1=O (centres unmarked) [pentobarbital],effect on GABA inhibition of T cell responses,"lymph node T cell; 3 μM with different concentrations of GABA, 7 μM GADp35, 96 hours",potentiated the actions of GABA
same,impact of compound without GABA on antigen-primed T cell proliferation,"lymph node T cell; 3 μM, without GABA",little impact
NCCC(=O)O [β-alanine],"effect on T cell proliferative responses, alone or co-incubated with GABA",lymph node T cell; 10 μM-10 mM,little effect
C=CC(N)CCC(=O)O (centres unmarked) [γ-vinyl-GABA],effect on GABA-mediated inhibition of T cell proliferation,lymph node T cell,did not significantly affect
picrotoxin,immuno-inhibitory effect of GABA on co-incubation with the compound,lymph node T cell,almost abolished
